System: gut microbiota
Test: Gut microbiome analysis (16S rRNA sequencing of fecal samples) in STAM model of NASH
Type: in vivo, C57BL/6J mice
Conditions: pre
Excerpt: The study is reported in accordance with Animal Research: Reporting of In Vivo Experiments (ARRIVE) guidelines. C57BL/6J mice were obtained from Japan SLC, Inc. (Japan). All animals used in this study were cared for under the following guidelines: Act on Welfare and Management of Animals (Ministry of the Environment, Japan, Act No. 105 of Oct. 1, 1973), standards relating to the care and management of laboratory animals and relief of pain (Notice No. 88 of the Ministry of the Environment, Japan, Apr. 28, 2006) and the guidelines for proper conduct of animal experiments (Science Council of Japan, Jun. 1, 2006). Protocol approvals were obtained from SMC Laboratories, Japan's IACUC (Study reference no: […] Mice were maintained in a specific pathogen-free (SPF) facility under controlled conditions of temperature (23±3° C.), humidity (50±20%), lighting (12-hour artificial light and dark cycles; light from 8:00 to 20:00) and air exchange. The STAM model of NASH was induced as previously described [D10]. Mice were given a single subcutaneous injection of 200 μg streptozotocin (STZ, Sigma-Aldrich, USA) solution 2 days after birth and fed with a high-fat diet (HFD, 57 kcal % fat, Cat #HFD32, CLEA Japan, Inc., Japan) from 4-9 weeks of age. All mice develop liver steatosis and diabetes and at […] mice had established steatohepatitis, histologically. Studygroups: There were five study groups, described below. Eight mice were included in each study group. Eight NASH mice were orally administered vehicle supplemented with AFO-202 Beta Glucan at a dose of 1 mg/kg in a volume of 5 mL/kg once daily from 6 to 9 weeks of age. Eight NASH mice were orally administered vehicle supplemented with Telmisartan at a dose of 10 mg/kg once daily from 6 to 9 weeks of age. Frequency: Fecal samples were collected at the 6 weeks of age (before administration) and 9 weeks of age (before sacrifice). Procedure: At 6 weeks of age, fecal samples were collected from each mouse by clean catch method. […] A sterile petri dish was placed on the bench. Gently massage the abdomen, position the bottom of mouse over a fresh petri dish, and collect 1-2 fecal pellets. At sacrifice, fecal samples were aseptically collected from cecum. The tubes with feces were placed on ice immediately. These tubes were snap frozen in liquid nitrogen and stored at -80° C. for shipping. In this analysis, the 16S rRNA sequence data acquired by the next-generation sequencer from the fecal […] was used to perform community analysis using the QIIME2 program for microbial community analysis. The raw read data in FASTQ format output from the next-generation sequencer was trimmed to remove adapter sequences and low QV regions that may be included in the data. Cutadapt was used to remove adapter sequences from DNA sequencing reads. Trimmomatic was used as read trimming tool for Illumina NGS data. The adapter sequence was trimmed using the adapter trimming program “cutadapt” if the Trimming of the region at the end of the read sequence overlapped the corresponding sequence by at least one base (mismatch tolerance: 20%). When reads containing N were present in at least one of Read1 and Read2, both Read1 and Read2 were removed. Trimming of low QV regions was performed on the read data after processing using the QV trimming program “Trimmomatic” under the following conditions. The window of 20 bases is slid from the 5' side, and the area where the average QV is less than 20 is trimmed. After trimming, only the reads with more than 50 bases remaining in both Read1 and Read2 were taken as output. The microbial community analysis based on 16S rRNA sequence was performed on the sequence data trimmed in the previous section using the microbial community analysis program “QIIME2”. The annotation program “sklearn” included in QIIME2 is used to annotate the ASV (OTU) sequences. […]

CCCc1nc2c(C)cc(-c3nc4ccccc4n3C)cc2n1Cc1ccc(-c2ccccc2C(=O)O)cc1 [Telmisartan]
Abundance S24-7/—/— (line r81): 327
Abundance Lachnospiraceae/[Ruminococcus]/gnavus (line r83): 120
Abundance Ruminococcaceae/Oscillospira/— (line r84): 284
Abundance Ruminococcaceae/Anaerotruncus/— (line r85): 638
Abundance Alcaligenaceae/Sutterella/— (line r86): 191
Abundance S24-7/—/— (line r87): 394
Abundance F16/—/— (line r88): 329
Abundance Other/Other/Other (line r90): 276
Abundance Lachnospiraceae/[Ruminococcus]/gnavus (line r91): 168
Abundance S24-7/—/— (line r92): 476
Abundance Rikenellaceae/—/— (line r93): 259
Abundance Lachnospiraceae/[Ruminococcus]/gnavus (line r94): 62
Abundance Lachnospiraceae/—/— (line r95): 250
Abundance Clostridiaceae/Other/Other (line r96): 693
Abundance Lachnospiraceae/—/— (line r97): 78
Abundance Ruminococcaceae/Oscillospira/— (line r98): 160
Abundance Enterococcaceae/Enterococcus/— (line r99): 32
Abundance Rikenellaceae/—/— (line r100): 239
Abundance S24-7/—/— (line r101): 208
Abundance Lactobacillaceae/Lactobacillus/reuteri (line r102): 0
Abundance Bacteroidaceae/Bacteroides/acidifaciens (line r103): 161
Abundance Ruminococcaceae/Oscillospira/— (line r104): 202
Abundance Enterobacteriaceae/Escherichia/coli (line r105): 0
Abundance Ruminococcaceae/Oscillospira/— (line r106): 152
Abundance —/—/— (line r107): 228
Abundance S24-7/—/— (line r108): 157
Abundance —/—/— (line r109): 988
Abundance Other/Other/Other (line r110): 463
Abundance Lachnospiraceae/—/— (line r111): 46
Abundance Lachnospiraceae/[Ruminococcus]/gnavus (line r112): 148
Abundance Lachnospiraceae/—/— (line r113): 390
Abundance Enterobacteriaceae/Klebsiella/Other (line r114): 0
Abundance Lachnospiraceae/—/— (line r115): 76
Abundance Enterobacteriaceae/Klebsiella/— (line r116): 0
Abundance —/—/— (line r117): 0
Abundance Lactobacillaceae/Lactobacillus/— (line r118): 4
Abundance Other/Other/Other (line r119): 57
Abundance —/—/— (line r120): 209
Abundance Erysipclotrichaceae/Allobaculum/— (line r121): 203
Abundance —/—/— (line r122): 131
Abundance Lachnospiraceae/—/— (line r123): 207
Abundance —/—/— (line r124): 362
Abundance Other/Other/Other (line r125): 58
Abundance Lactobacillaceae/Lactobacillus/reuteri (line r126): 0
Abundance Ruminococcaceae/Oscillospira/— (line r127): 158
Abundance Lachnospiraceae/—/— (line r128): 50
Abundance S24-7/—/— (line r130): 64
Abundance Lachnospiraceae/—/— (line r131): 315
Abundance S24-7/—/— (line r132): 104
Abundance S24-7/—/— (line r133): 60
Abundance Lachnospiraceae/—/— (line r134): 19
Abundance —/—/— (line r135): 28
Abundance Coriobacteriaceae/Adlercreutzia/— (line r136): 110
Abundance —/—/— (line r137): 200
Abundance Clostidiaceae/Other/Other (line r138): 0
Abundance Turicibacteraceae/Turicibacter/— (line r139): 125
Abundance Ruminococcaceae/Ruminococcus/— (line r140): 193
Abundance Ruminococcaceae/Oscillospira/— (line r141): 215
Abundance Dehalobacteriaceae/Dehalobacterium/— (line r142): 43
Abundance Staphylococcaceae/Staphylococcus/Other (line r143): 110
Abundance Rikenellaceae/—/— (line r144): 61
Abundance Lachnospiraceae/—/— (line r145): 87
Abundance —/—/— (line r146): 60
Abundance Staphylococcaceae/Staphylococcus/sciuri (line r147): 34
Abundance —/—/— (line r148): 103
Abundance Ruminococcaceae/Ruminococcus/— (line r149): 157
Abundance Coriobacteriaceae/Adlercreutzia/— (line r150): 101
Abundance Ruminococcaceae/Oscillospira/— (line r151): 61
Abundance Lachnospiraceae/Clostridium/Other (line r152): 85
Abundance Lachnospiraceae/Coprococcus/— (line r153): 151
Abundance Desulfovibrionaceae/—/— (line r154): 50
Abundance —/—/— (line r155): 94
Abundance Lachnospiraceae/—/— (line r156): 0
Abundance Dehalobacteriaceae/Dehalobacterium/— (line r157): 41
Abundance Coriobacteriaceae/Adlercreutzia/— (line r158): 90
Abundance Lachnospiraceae/—/— (line r159): 37
Abundance Lachnospiraceae/—/— (line r160): 168
Abundance Ruminococcaceae/Oscillospira/— (line r161): 0
Abundance Streptococcaceae/Streptococcus/— (line r163): 0
Abundance Lachnospiraceae/[Ruminococcus]/gnavus (line r164): 83
Abundance Lachnospiraceae/—/— (line r165): 102
Abundance Lachnospiraceae/—/— (line r166): 231
Abundance Coriobacteriaceae/Adlercreutzia/— (line r167): 74
Abundance Erysipelotrichaceae/Clostridium/cocleatum (line r169): 0
Abundance S24-7/—/— (line r170): 53
Abundance Lachnospiraceae/—/— (line r171): 27
Abundance Bacteroidaceae/Bacteroides/— (line r172): 55
Abundance Ruminococcaceae/Oscillospira/— (line r173): 59
Abundance Ruminococcaceae/—/— (line r174): 41
Abundance Lachnospiraceae/Other/Other (line r175): 52
Abundance Lachnospiraceae/Dorea/— (line r176): 28
Abundance Lachnospiraceae/—/— (line r177): 0
Abundance S24-7/—/— (line r178): 168
Abundance Lachnospiraceae/—/— (line r179): 92
Abundance Lactobacillaceae/Lactobaccilus/Other (line r180): 0
Abundance —/—/— (line r181): 34
Abundance Ruminococcaceae/Oscillospira/— (line r182): 99
Abundance S24-7/—/— (line r183): 55
Abundance S24-7/—/— (line r184): 67
Abundance [Mogibacteriaceae]/—/— (line r185): 36
Abundance Peptococcaceae/—/— (line r186): 43
Abundance —/—/— (line r187): 13
Abundance —/—/— (line r188): 0
Abundance S24-7/—/— (line r189): 76

— patent US20240374631A1, “A COMPOSITION FOR IMPROVING GUT MICROBIOTA, BEHAVIOURAL PATTERN, ALPHA-SYNUCLEIN LEVELS, SLEEP PATTERN AND/OR SERUM MELATONIN” (GN Corporation Co Ltd, priority 2021, published 2024)
